From US3992391A, “1,3-Disubstituted thiourea compounds and preparation thereof” (priority 1972, dated 1976)
Counter-ions that a name gives are not always drawn.

What was measured:
[1] = Hypoxia test (mouse), KCN, survival time; format: in vivo, male mice (dd-strain); settings: KCN 10 mg/kg i.p.
Acute toxicity = format: in vivo; settings: for LD50: mouse, in vivo, dd-strain male mice
Method: Acute toxicity of 1-(3'-pyridyl)-3-(2'-hydroxyethyl)thiourea hydrochloride was determined in dd-strain male mice.

[2] = Brain water content after triethyl tin sulfate cerebral edema; format: in vivo; settings: rats; for H2O, Gray: gray matter; for H2O, White: white matter
Method: Cerebral edema was induced in rats by a triethyl tin sulfate (5.0 mg/kg, i.p.) made on the whole brain. Edema was measured by the increase in water content, lactate, phosphorylase activity and the decrease in glycogen, Na^+, K^+ - ATPase activity of the whole brain.
1-(3'-Pyridyl)-3-(2'-hydroxyethyl)thiourea HCl was given 1 hour before and 24, 48 hours after the lesion treatment and the animals were killed by decapitation 72 hours after the lesion treatment.

[3] = Hypoxia test (mouse), reduced pressure, survival time; format: in vivo, male mice (dd-strain); settings: reduced pressure 145 mmHg
Method: (§1) Male mice (dd-strain) and rats (wister-strain) were taken to a closed room which was filled with a gas mixture consisting of 1.5 % oxygen and 98.5 % nitrogen, or was conditioned in reduced atmospheric pressure (145 mmHg). In the other hand, mice and rats were given sodium cyanide (10 mg/kg, i.p.). These animals died after a few minutes in such conditions. 1-(3'-Pyridyl)-3-(2'-hydroxyethyl)thiourea HCl was given 1 hour before these hypoxia tests.
(§2) In the Tables data mean the increase percent of the survival time to that of control.

[4] = Hypoxia test (mouse), normal pressure, survival time; format: in vivo, male mice (dd-strain); settings: 1.5 % O2 + 98.5 % N2
Method: as §1, §2

Na^+, K^+ - ATPase = test: Cerebral Na^+, K^+ - ATPase after cold injury (freezing lesion cerebral edema); format: in vivo; settings: rats
Method: Cerebral edema was induced in rats by a freezing lesion (dry ice) made on the exposed dura of unilateral hemisphere. Edema was measured by the increase in water content of gray and white matter, the increase in phosphorylase activity and the decrease in Na^+, K^+ - ATPase activity of the injured brain. 1-(3'-Pyridyl)-3-(2'-hydroxyethyl)thiourea HCl was given 1 hour before and 24 hours after, and the animals were killed by decapitation 48 hours after the lesion treatment.

For OCCNC(=S)Nc1cccnc1 [1-(3'-pyridyl)-3-(2'-hydroxyethyl)thiourea hydrochloride], the “increase percent of the survival time to that of control” value (from here on “increase percent of the survival time”) ([1]; 30 mg/kg i.v.) was 185%, the “increase percent of the survival time” value ([1]; 30 mg/kg p.o.) was 42% and the “increase percent of the survival time” value ([1]; 100 mg/kg p.o.) was 189%. The “increase percent of the survival time” value ([1]; 100 mg/kg s.c.) was 254%, the “increase percent of the survival time” value ([1]; 300 mg/kg p.o.) was 287% and the “acute lethal toxic symptoms” value (Acute toxicity; dose of LD50 or more) was “sedation and paralysis”. The LD50 (Acute toxicity; iv) was 640 mg/kg, the LD50 (Acute toxicity; po) was > 2000 mg/kg and the LD50 (Acute toxicity; sc) was 1350 mg/kg. For the same compound, the “H2O, Gray” value ([2]; 30 mg/kg p.o.) was 81.6%, the “H2O, White” value ([2]; 30 mg/kg p.o.) was 79.5% and the “H2O, Gray” value ([2]; 100 mg/kg p.o.) was 80.2%. The “H2O, White” value ([2]; 100 mg/kg p.o.) was 78.3%, the “H2O, Gray” value ([2]; 300 mg/kg p.o.) was 79.4% and the “H2O, White” value ([2]; 300 mg/kg p.o.) was 77.8%. The “increase percent of the survival time” value ([3]; 30 mg/kg i.v.) was 141%, the “increase percent of the survival time” value ([3]; 30 mg/kg p.o.) was 35% and the “increase percent of the survival time” value ([3]; 100 mg/kg p.o.) was 64%. For the same compound, the “increase percent of the survival time” value ([3]; 100 mg/kg s.c.) was 128%, the “increase percent of the survival time” value ([3]; 300 mg/kg p.o.) was 132% and the “increase percent of the survival time” value ([4]; 30 mg/kg i.v.) was 164%. For the same compound, the “increase percent of the survival time” value ([4]; 30 mg/kg p.o.) was 105%, the “increase percent of the survival time” value ([4]; 100 mg/kg p.o.) was 165% and the “increase percent of the survival time” value ([4]; 100 mg/kg s.c.) was 147%. For the same compound, the “increase percent of the survival time” value ([4]; 300 mg/kg p.o.) was 231%, the ATPase (Na^+, K^+ - ATPase; 100 mg/kg p.o.) was 1.180 ± 0.094 μ moles Pi/g/hr and the ATPase (Na^+, K^+ - ATPase; 300 mg/kg p.o.) was 1.226 ± 0.080 μ moles Pi/g/hr. The “effect on the decrease in Na^+, K^+ - ATPase activity” value (Na^+, K^+ - ATPase; 300 mg/kg p.o.) was “protective effect”.
